One assay addresses phosphor-Axl (Homo sapiens (Human), UniProt P30530). Kind of assay: TAM Enzymatic Assay (HTRF), Axl. The assay is classed as biochemical. The note with it: recombinant autophosphorylated Axl, 60 min, room temperature. The protocol:
Autophosphorylation of Axl was carried out by incubating the recombinant Axl protein (Life Technologies, PV4275) in buffer containing 50 mM Tris, pH7.5, 0.2 mg/ml Axl, 5 mM ATP, 20 mM MgCl2 and 2 mM DTT at room temperature for 1 hour.
(§1) The kinase assay buffer contained 50 mM HEPES, pH7.5, 10 mM MgCl2, 1 mM EGTA, 0.01% NP-40 and 2 mM DTT. 0.1 ul test compounds dissolved in DMSO were transferred from compound plates to white 384-well assay plates (Greiner […] plates). […] 4 ul enzyme solution (or assay buffer for the enzyme blank) was added to the appropriate wells in each plate, and then 4 ul/well substrate solution was added to initiate the reaction. The plate was protected from light and incubated at room temperature for 60 min. […] The plate was incubated for 1 h at room temperature, and HTRF (homogenous time resolved fluorescence) signal was measured on a PHERAstar FS plate reader (BMG labtech). Percentage of inhibition was calculated for each concentration and IC50 value was generated from curve fitting with GraphPad Prism software.
(In general: TR-FRET usually uses a lanthanide donor and a delayed reading to cut background.)

The target of the next assay is Tyro3 (Homo sapiens (Human), UniProt Q06418). Put plainly: TAM Enzymatic Assay (HTRF), Tyro3. The assay is classed as biochemical. The note with it: Tyro3, 60 min, room temperature. The protocol: as §1

Each structure is given as a SMILES string. Where only a bound is given, the exact number is not on record here.

Chain of Tyro3 (Q06418 41-890): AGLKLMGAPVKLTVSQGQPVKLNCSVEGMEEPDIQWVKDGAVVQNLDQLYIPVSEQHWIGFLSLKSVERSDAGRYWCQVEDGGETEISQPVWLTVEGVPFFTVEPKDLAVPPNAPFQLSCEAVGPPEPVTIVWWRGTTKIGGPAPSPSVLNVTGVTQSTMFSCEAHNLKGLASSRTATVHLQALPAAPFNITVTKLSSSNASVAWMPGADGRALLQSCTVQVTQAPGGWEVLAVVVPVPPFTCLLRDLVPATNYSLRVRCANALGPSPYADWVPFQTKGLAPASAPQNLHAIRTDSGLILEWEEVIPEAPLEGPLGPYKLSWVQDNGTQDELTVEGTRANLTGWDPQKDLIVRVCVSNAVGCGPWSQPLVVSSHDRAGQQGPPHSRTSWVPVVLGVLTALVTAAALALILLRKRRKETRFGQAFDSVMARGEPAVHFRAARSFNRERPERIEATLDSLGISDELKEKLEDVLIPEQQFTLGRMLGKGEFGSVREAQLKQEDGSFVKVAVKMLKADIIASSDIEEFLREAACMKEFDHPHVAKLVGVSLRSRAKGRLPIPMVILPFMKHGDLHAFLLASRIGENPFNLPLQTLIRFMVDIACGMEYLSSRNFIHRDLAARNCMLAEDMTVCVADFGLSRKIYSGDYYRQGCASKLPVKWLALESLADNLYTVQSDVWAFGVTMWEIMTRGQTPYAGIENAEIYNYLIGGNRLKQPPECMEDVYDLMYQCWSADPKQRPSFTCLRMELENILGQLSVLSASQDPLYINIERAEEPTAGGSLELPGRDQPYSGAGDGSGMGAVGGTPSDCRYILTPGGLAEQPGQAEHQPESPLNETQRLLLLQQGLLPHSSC
Chain of phosphor-Axl (P30530 26-894): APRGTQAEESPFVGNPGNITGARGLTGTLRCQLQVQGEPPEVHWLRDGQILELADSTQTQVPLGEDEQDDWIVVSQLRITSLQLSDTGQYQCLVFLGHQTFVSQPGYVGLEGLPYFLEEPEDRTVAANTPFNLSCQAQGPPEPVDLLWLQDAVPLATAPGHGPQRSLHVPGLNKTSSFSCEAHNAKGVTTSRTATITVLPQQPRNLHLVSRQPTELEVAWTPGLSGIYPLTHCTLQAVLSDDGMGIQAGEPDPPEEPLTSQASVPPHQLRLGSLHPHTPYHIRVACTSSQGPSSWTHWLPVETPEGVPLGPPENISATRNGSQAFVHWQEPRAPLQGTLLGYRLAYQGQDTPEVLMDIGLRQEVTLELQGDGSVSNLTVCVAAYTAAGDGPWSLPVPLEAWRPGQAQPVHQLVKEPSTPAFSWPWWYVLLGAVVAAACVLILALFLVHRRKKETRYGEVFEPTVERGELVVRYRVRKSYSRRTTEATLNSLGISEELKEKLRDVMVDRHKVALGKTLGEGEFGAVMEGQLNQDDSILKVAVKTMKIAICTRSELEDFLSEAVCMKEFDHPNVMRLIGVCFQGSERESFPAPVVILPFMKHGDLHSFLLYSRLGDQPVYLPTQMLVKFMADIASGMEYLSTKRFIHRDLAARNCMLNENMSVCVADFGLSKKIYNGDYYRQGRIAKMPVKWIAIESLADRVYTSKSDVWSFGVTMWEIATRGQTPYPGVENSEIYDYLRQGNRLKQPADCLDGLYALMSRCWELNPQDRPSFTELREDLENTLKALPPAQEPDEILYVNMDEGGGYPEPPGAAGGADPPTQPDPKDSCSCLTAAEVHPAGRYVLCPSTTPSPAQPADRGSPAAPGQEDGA

One may read the IC50 as the concentration that inhibits the measured activity by half. On to `CC(C)C(=O)N1CCC(c2cc(-c3ccc(NC(=O)c4cn(C5CC5)c(=O)n(-c5cccnc5)c4=O)cc3)c3c(N)ncnn23)CC1` [Example 140, N-(4-(4-Amino-7-(1-isobutyrylpiperidin-4-yl)pyrrolo[2,1-f][1,2,4]triazin-5-yl)phenyl)-1-cyclopropyl-2,4-dioxo-3-(pyridin-3-yl)-1,2,3,4-tetrahydropyrimidine-5-carboxamide], for which the IC50 was no more than 5 nM at phosphor-Axl and greater than 100 nM against Tyro3.
On to `CC(C)n1cc(C(=O)Nc2ccc(-c3cc(C4CN(C(=O)C5CC5)C4)n4ncnc(N)c34)cc2)c(=O)n(-c2ccccc2)c1=O` [Example 94, N-(4-(4-amino-7-(1-(cyclopropanecarbonyl)azetidin-3-yl)pyrrolo[2,1-f][1,2,4]triazin-5-yl)phenyl)-1-isopropyl-2,4-dioxo-3-phenyl-1,2,3,4-tetrahydropyrimidine-5-carboxamide], for which the IC50 at phosphor-Axl is no more than 5 nM; against Tyro3, greater than 100 nM.
With `CC(C)C(=O)N1CCC(c2cc(-c3ccc(NC(=O)c4cc(C5CC5)nn(-c5ccccc5)c4=O)cc3)c3c(N)ncnn23)CC1` [Example 117, N-{4-[4-Amino-7-(1-isobutyrylpiperidin-4-yl)pyrrolo[2,1-f][1,2,4]triazin-5-yl]phenyl}-6-cyclopropyl-3-oxo-2-phenyl-2,3-dihydropyridazine-4-carboxamide], the IC50 was no more than 5 nM on phosphor-Axl and greater than 100 nM on Tyro3.
Turning to `Cc1c(-c2ccnn2C)cc(C(=O)Nc2ccc(-c3cc(C4CCN(C(=O)C(C)C)CC4)n4ncnc(N)c34)cc2)c(=O)n1-c1cccnc1` [Example 134, N-(4-(4-Amino-7-(1-isobutyrylpiperidin-4-yl)pyrrolo[2,1-f][1,2,4]triazin-5-yl)phenyl)-6-methyl-5-(1-methyl-1H-pyrazol-5-yl)-2-oxo-2H-[1,3′-bipyridine]-3-carboxamide], the half-inhibitory concentration (IC50) is no more than 5 nM on phosphor-Axl and greater than 100 nM at Tyro3.
Regarding `CC(C)C(=O)N1CCC(c2cc(-c3ccc(NC(=O)c4cn(C(C)C)c(=O)n(-c5cc(F)ccc5F)c4=O)cc3)c3c(N)ncnn23)CC1` [Example 76, N-(4-(4-Amino-7-(1-isobutyrylpiperidin-4-yl)pyrrolo[1,2-f][1,2,4]triazin-5-yl)phenyl)-3-(2,5-difluorophenyl)-1-isopropyl-2,4-dioxo-1,2,3,4-tetrahydropyrimidine-5-carboxamide], the figures for the IC50 on phosphor-Axl and on Tyro3 were no more than 5 nM and greater than 100 nM, respectively.
In the same order, the values of `CC(C)n1cc(C(=O)Nc2ccc(-c3cc(CN4CCOCC4)n4ncnc(N)c34)cc2)c(=O)n(-c2ccccc2)c1=O` [Example 95, N-(4-(4-Amino-7-(morpholinomethyl)pyrrolo[1,2-f][1,2,4]triazin-5-yl)phenyl)-1-isopropyl-2,4-dioxo-3-phenyl-1,2,3,4-tetrahydropyrimidine-5-carboxamide] are no more than 5 nM and greater than 100 nM.
`Cc1c(Cl)cc(C(=O)Nc2ccc(-c3cc(C4CCN(C(=O)C(C)C)CC4)n4ncnc(N)c34)cc2)c(=O)n1-c1ccccn1` [Example 124, N-(4-(4-Amino-7-(1-isobutyrylpiperidin-4-yl)pyrrolo[2,1-f][1,2,4]triazin-5-yl)phenyl)-5-chloro-6-methyl-2-oxo-2H-[1,2′-bipyridine]-3-carboxamide]: the values for the IC50 on phosphor-Axl and at Tyro3 were no more than 5 nM and greater than 100 nM, respectively.
In the same order, the values of `CCn1cc(C(=O)Nc2ccc(-c3cc(C4CCN(C(=O)N(C)C)CC4)n4ncnc(N)c34)cc2)c(=O)n(-c2cccc(F)c2)c1=O` [Example 72, N-(4-(4-Amino-7-(1-(dimethylcarbamoyl)piperidin-4-yl)pyrrolo[1,2-f][1,2,4]triazin-5-yl)phenyl)-1-ethyl-3-(3-fluorophenyl)-2,4-dioxo-1,2,3,4-tetrahydropyrimidine-5-carboxamide] are no more than 5 nM and greater than 100 nM.
Take `Cc1c(-c2ccnn2C)cc(C(=O)Nc2ccc(-c3cc(C4CCN(C(=O)C(C)C)CC4)n4ncnc(N)c34)cc2)c(=O)n1-c1ccccn1` [Example 123, N-(4-(4-Amino-7-(1-isobutyrylpiperidin-4-yl)pyrrolo[2,1-f][1,2,4]triazin-5-yl)phenyl)-6-methyl-5-(1-methyl-1H-pyrazol-5-yl)-2-oxo-2H-[1,2′-bipyridine]-3-carboxamide]: the values for the IC50 at phosphor-Axl and at Tyro3 were no more than 5 nM and greater than 100 nM, respectively.
Regarding `Cc1c(N2CCOCC2)cc(C(=O)Nc2ccc(-c3cc(C4CCN(C(=O)C(C)C)CC4)n4ncnc(N)c34)cc2)c(=O)n1-c1ccccc1` [Example 110, N-{4-[4-Amino-7-(1-isobutyrylpiperidin-4-yl)pyrrolo[2,1-f][1,2,4]triazin-5-yl]phenyl}-6-methyl-5-morpholin-4-yl-2-oxo-1-phenyl-1,2-dihydropyridine-3-carboxamide], the IC50 at phosphor-Axl was no more than 5 nM; at Tyro3 it was greater than 100 nM.
For `CCn1cc(C(=O)Nc2ccc(-c3cc(C4CCN(C(=O)C(C)C)CC4)n4ncnc(N)c34)cc2)c(=O)n(-c2cccc(F)c2)c1=O` [Example 73, N-(4-(4-Amino-7-(1-isobutyrylpiperidin-4-yl)pyrrolo[1,2-f][1,2,4]triazin-5-yl)phenyl)-1-ethyl-3-(3-fluorophenyl)-2,4-dioxo-1,2,3,4-tetrahydropyrimidine-5-carboxamide] the same measures were no more than 5 nM and greater than 100 nM.
As for `Nc1ncnn2c(C3CCN(CCO)CC3)cc(-c3ccc(NC(=O)c4cc5c(n(-c6ccc(F)cc6)c4=O)CCCC5=O)cc3)c12` [Example 59, N-(4-{4-Amino-7-[1-(2-hydroxyethyl)piperidin-4-yl]pyrrolo[2,1-f][1,2,4]triazin-5-yl}phenyl)-1-(4-fluorophenyl)-2,5-dioxo-1,2,5,6,7,8-hexahydroquinoline-3-carboxamide], the half-maximal inhibitory concentration (IC50) is no more than 5 nM at phosphor-Axl and greater than 100 nM on Tyro3.
For `CC(C)C(=O)N1CCC(c2cc(-c3ccc(NC(=O)c4cn(C5CC5)c(=O)n(-c5ccccn5)c4=O)cc3)c3c(N)ncnn23)CC1` [Example 144, N-(4-(4-Amino-7-(1-isobutyrylpiperidin-4-yl)pyrrolo[1,2-f][1,2,4]triazin-5-yl)phenyl)-1-cyclopropyl-2,4-dioxo-3-(pyridin-2-yl)-1,2,3,4-tetrahydropyrimidine-5-carboxamide] the same measures were no more than 5 nM and greater than 100 nM.
In the same order, the values of `CCOCc1c(C#N)cc(C(=O)Nc2ccc(-c3cc(C4CCN(C(=O)C(C)C)CC4)n4ncnc(N)c34)cc2)c(=O)n1-c1ccccc1` [Example 137, N-(4-(4-Amino-7-(1-isobutyrylpiperidin-4-yl)pyrrolo[2,1-f][1,2,4]triazin-5-yl)phenyl)-5-cyano-6-(ethoxymethyl)-2-oxo-1-phenyl-1,2-dihydropyridine-3-carboxamide] are no more than 5 nM and greater than 100 nM.
With `Cc1c(-c2cnn(C)c2)cc(C(=O)Nc2ccc(-c3cc(C4CCN(C(=O)C(C)C)CC4)n4ncnc(N)c34)cc2)c(=O)n1-c1ccccc1` [Example 107, N-{4-[4-Amino-7-(1-isobutyrylpiperidin-4-yl)pyrrolo[2,1-f][1,2,4]triazin-5-yl]phenyl}-6-methyl-5-(1-methyl-1H-pyrazol-4-yl)-2-oxo-1-phenyl-1,2-dihydropyridine-3-carboxamide], the IC50 at phosphor-Axl was no more than 5 nM; against Tyro3, greater than 100 nM.
In the same order, the values of `CC(C)C(=O)N1CCC(c2cc(-c3ccc(NC(=O)c4cn(C(C)C)c(=O)n(-c5ncccn5)c4=O)cc3)c3c(N)ncnn23)CC1` [Example 143, N-(4-(4-Amino-7-(1-isobutyrylpiperidin-4-yl)pyrrolo[1,2-f][1,2,4]triazin-5-yl)phenyl)-1-isopropyl-2,4-dioxo-3-(pyrimidin-2-yl)-1,2,3,4-tetrahydropyrimidine-5-carboxamide] are no more than 5 nM and greater than 100 nM.
Take `CC(C)C(=O)N1CCC(c2cc(-c3ccc(NC(=O)c4cn(C(C)C)cc(-c5cccnc5)c4=O)cc3)c3c(N)ncnn23)CC1` [Example 128, N-(4-(4-Amino-7-(1-isobutyrylpiperidin-4-yl)pyrrolo[1,2-f][1,2,4]triazin-5-yl)phenyl)-1-isopropyl-4-oxo-5-(pyridin-3-yl)-1,4-dihydropyridine-3-carboxamide]: the IC50 at phosphor-Axl is no more than 5 nM; at Tyro3 it was greater than 100 nM.
In the same order, the values of `CCN(C)C(=O)N1CCC(c2cc(-c3ccc(NC(=O)c4cc5c(n(-c6ccc(F)cc6)c4=O)CCCC5=O)cc3F)c3c(N)ncnn23)CC1` [Example 58, N-{4-[4-Amino-7-(1-{[ethyl(methyl)amino]carbonyl}piperidin-4-yl)pyrrolo[2,1-f][1,2,4]triazin-5-yl]-3-fluorophenyl}-1-(4-fluorophenyl)-2,5-dioxo-1,2,5,6,7,8-hexahydroquinoline-3-carboxamide] are no more than 5 nM and greater than 100 nM.
Take `Cc1cc(-n2c(=O)c(C(=O)Nc3ccc(-c4cc(C5CCN(C(=O)C(C)C)CC5)n5ncnc(N)c45)cc3)cn(C(C)C)c2=O)nn1C` [Example 148, N-(4-(4-Amino-7-(1-isobutyrylpiperidin-4-yl)pyrrolo[1,2-f][1,2,4]triazin-5-yl)phenyl)-3-(1,5-dimethyl-1H-pyrazol-3-yl)-1-isopropyl-2,4-dioxo-1,2,3,4-tetrahydropyrimidine-5-carboxamide]: the IC50 at phosphor-Axl is no more than 5 nM; on Tyro3, greater than 100 nM.
